Tested on: Delayed type hypersensitivity (DTH) skin reaction
Test: Inhibition of DTH skin reactions (oxazolone-induced mouse ear swelling test)
Assay type: in vivo, female Balb/c mice
Conditions: for % Inf ((diff/baseline measurement)×100) / % Inhibit ([1−(diff/diff of PBS)]×100) / Diff. (average difference between baseline and post treatment ear measurements): 24 hours after challenge; for effectiveness in the DTH skin reaction model: 5-100 mg/ml
Procedure: Delayed type hypersensitivity (DTH), a localized inflammatory reaction induced by cytokines secreted by TH cells when they encounter certain types of antigens, is an established experimental model for skin inflammation.
DTH reactions were induced in the abdomen skin of 8 week old female Balb/c mice. The mice were sensitized first by topical application of 100 μl of a 5% Oxazolone (4-Ethoxymethylene-2-phenyl-2-oxazolin-5-one; Sigma) solution in ethanol/acetone (3:1, vol/vol) to a shaved abdomen. The mice were anesthetized with ip injection of Ketamine (1 ml)+Xylazine (1 ml)+Saline (8 ml), (0.2 ml per 20 g mouse). Anesthetization was performed before the shaving of the abdomen and the first sensitization.
After 4 days the mice were challenged for the second time using 1% Oxazolone (4-Ethoxymethylene-2-phenyl-2-oxazolin-5-one; Sigma) solution in ethanol/acetone (3:1, vol/vol). The solution was pipetted to the shaved abdomen of the mice.
Six days after the first sensitization, the right ear of each mouse was challenged with a topical application of 20 μl (10 μl on each surface of the ear) of a 1% Oxazolone solution in olive oil/acetone (3:1, vol/vol).
Treatment was given 30 min after challenging by applying 40 μl (20 μl on each surface of the ear) of treatment compounds on the challenged ear of each mouse.
After 24 hours, the extent of inflammation was measured using the mouse ear swelling test (caliper) and the percent inhibition induced by the treatment was quantified.
The experiment includes groups treated with 5, 15, 40, and 100 mg/ml of octadec-(Z)-9-enoic acid 4-dimethylaminomethyl-benzyl ester HCl (1c) and groups treated with 5, 15, 40, and 100 mg/ml of octadec-(Z)-9-enoic acid 4-dimethylaminomethyl-phenyl ester HCl (2d). The experiment also includes dexamethasone (2 mg/mouse) as a positive control, one negative control group (PBS, phosphate buffered saline), and one naïve group. There were 6 mice per group. The researchers who performed the measurements were blinded as to the grouping of each mouse.
In Table 1, “diff” refers to average difference between baseline and post treatment measurements in mm; “% Inf” refers to the (diff/baseline measurement)×100; and, “% Inhibit” refers to [1−(diff/diff of PBS)]×100. Baseline measurements of the ear were conducted before the first sensitization.

[1] = topical on challenged ear, treatment 5 mg/ml (0.2 mg/mouse)
[2] = topical on challenged ear, treatment 15 mg/ml (0.6 mg/mouse)
[3] = topical on challenged ear, treatment 40 mg/ml (1.6 mg/mouse)
[4] = topical on challenged ear, treatment 100 mg/ml (4 mg/mouse)
[5] = positive control, dose 2 mg/mouse

SMILES	% Inf ((diff/baseline measurement)×100) [1]	% Inhibit ([1−(diff/diff of PBS)]×100) [1]	Diff. (average difference between baseline and post treatment ear measurements) [1]	% Inf ((diff/baseline measurement)×100) [2]	% Inhibit ([1−(diff/diff of PBS)]×100) [2]	Diff. (average difference between baseline and post treatment ear measurements) [2]	% Inf ((diff/baseline measurement)×100) [3]	% Inhibit ([1−(diff/diff of PBS)]×100) [3]	Diff. (average difference between baseline and post treatment ear measurements) [3]	% Inf ((diff/baseline measurement)×100) [4]	% Inhibit ([1−(diff/diff of PBS)]×100) [4]	Diff. (average difference between baseline and post treatment ear measurements) [4]	effectiveness in the DTH skin reaction model (topical)	most effective doses (DTH skin reaction model, topical)	% Inf ((diff/baseline measurement)×100) [5]	% Inhibit ([1−(diff/diff of PBS)]×100) [5]	Diff. (average difference between baseline and post treatment ear measurements) [5]
CCCCCCCC/C=C\CCCCCCCC(=O)OCc1ccc(CN(C)C)cc1.Cl [Compound 1c, Octadec-(Z)-9-enoic acid 4-dimethylaminomethyl-benzyl ester HCl]	92.65%	26.74%	0.20 mm	103.21%	26.01%	0.20 mm	58.56%	54.82%	0.12 mm	48.19%	63.37%	0.10 mm	effective				
CCCCCCCC/C=C\CCCCCCCC(=O)Oc1ccc(CN(C)C)cc1.Cl [Compound 2d, Octadec-(Z)-9-enoic acid 4-dimethylaminomethyl-phenyl ester HCl]	113.46%	13.31%	0.24 mm	107.18%	21.25%	0.22 mm	114.66%	13.31%	0.24 mm	55.96%	59.10%	0.11 mm	effective	100 mg/mL			
C[C@@H]1C[C@H]2[C@@H]3CCC4=CC(=O)C=C[C@]4(C)[C@@]3(F)[C@@H](O)C[C@]2(C)[C@@]1(O)C(=O)CO [Positive control, dexamethasone, reference compound]															20.55%	84.74%	0.04 mm

Source: patent US7294739B1, “Basic amine esters or oleic acid and their use as anti-inflammatory or immunobodulatory agents” (Teva Pharmacaetical Industries Ltd., priority 2006, dated 2007)
